Data from ChEMBL document CHEMBL1275539 (2008).
Converted amounts (≈) assume the structure as drawn.

How the values were obtained:
Format in all cases: functional
[1] = system: Streptococcus pneumoniae; assay: Antibacterial activity against penicillin-nonsusceptible Streptococcus pneumoniae isolate by agar dilution method
[2] = system: Streptococcus pneumoniae; assay: Antibacterial activity against cefotaxime-resistant Streptococcus pneumoniae assessed as percent susceptible isolates by agar dilution method
[3] = system: Streptococcus pneumoniae; assay: Antibacterial activity against penicillin-susceptible Streptococcus pneumoniae isolate by agar dilution method
[4] = system: Streptococcus pneumoniae; assay: Antibacterial activity against cefotaxime-intermediate Streptococcus pneumoniae isolate by agar dilution method
[5] = system: Streptococcus pneumoniae; assay: Antibacterial activity against erythromycin-resistant Streptococcus pneumoniae assessed as percent susceptible isolates by agar dilution method
[6] = system: Streptococcus pneumoniae; assay: Antibacterial activity against cefotaxime-resistant Streptococcus pneumoniae isolate by agar dilution method
[7] = system: Streptococcus pneumoniae; assay: Antibacterial activity against amoxicillin-resistant Streptococcus pneumoniae isolate by agar dilution method
[8] = system: Streptococcus pneumoniae; assay: Antibacterial activity against levofloxacin-resistant Streptococcus pneumoniae isolate by agar dilution method
[9] = system: Streptococcus pneumoniae; assay: Antibacterial activity against cefotaxime-intermediate Streptococcus pneumoniae assessed as percent susceptible isolates by agar dilution method
[10] = system: Streptococcus pneumoniae; assay: Antibacterial activity against amoxicillin-intermediate Streptococcus pneumoniae isolate by agar dilution method
[11] = system: Streptococcus pneumoniae; assay: Antibacterial activity against erythromycin-resistant Streptococcus pneumoniae isolate by agar dilution method
[12] = system: Streptococcus pneumoniae; assay: Antibacterial activity against levofloxacin-resistant Streptococcus pneumoniae assessed as percent susceptible isolates by agar dilution method
[13] = system: Streptococcus pneumoniae; assay: Antibacterial activity against penicillin-susceptible Streptococcus pneumoniae assessed as percent susceptible isolates by agar dilution method
[14] = system: Streptococcus pneumoniae; assay: Antibacterial activity against amoxicillin-intermediate Streptococcus pneumoniae assessed as percent susceptible isolates by agar dilution method
[15] = system: Streptococcus pneumoniae; assay: Antibacterial activity against amoxicillin-resistant Streptococcus pneumoniae assessed as percent susceptible isolates by agar dilution method
[16] = system: Streptococcus pneumoniae; assay: Antibacterial activity against penicillin-nonsusceptible Streptococcus pneumoniae assessed as percent susceptible isolates by agar dilution method

| Compound | MIC50 [1] | MIC90 [1] | MIC50 [3] | MIC90 [3] | MIC50 [4] | MIC90 [4] | Activity [5] | MIC50 [6] | MIC90 [6] | MIC50 [7] | MIC90 [7] | MIC50 [8] | MIC90 [8] | Activity [9] | MIC50 [10] | MIC90 [10] | MIC50 [11] | MIC90 [11] | Activity [12] | Activity [16] | other results |
| --- | --- | --- | --- | --- | --- | --- | --- | --- | --- | --- | --- | --- | --- | --- | --- | --- | --- | --- | --- | --- | --- |
| CO/N=C(\C(=O)N[C@@H]1C(=O)N2C(C(=O)O)=C(CSc3nc(=O)c(O)nn3C)CS[C@H]12)c1csc(N)n1 [CEFTRIAXONE] | 1 µg/mL (≈ 1.8 µM) | 2 µg/mL (≈ 3.61 µM) | 0.5 µg/mL (≈ 0.902 µM) | 1 µg/mL (≈ 1.8 µM) | 1 µg/mL (≈ 1.8 µM) | 1 µg/mL (≈ 1.8 µM) | 97.1% | 2 µg/mL (≈ 3.61 µM) | 4 µg/mL (≈ 7.21 µM) | 1 µg/mL (≈ 1.8 µM) | 1 µg/mL (≈ 1.8 µM) | 0.06 µg/mL (≈ 0.108 µM) | 1 µg/mL (≈ 1.8 µM) | 97.2% | 1 µg/mL (≈ 1.8 µM) | 1 µg/mL (≈ 1.8 µM) | 0.5 µg/mL (≈ 0.902 µM) | 1 µg/mL (≈ 1.8 µM) | 99.3% | 83.3% | Activity [2]: 31.3%; Activity [13]: 98.8%; Activity [14]: 95.3%; Activity [15]: 95.2% |
| CO/N=C(\C(=O)N[C@@H]1C(=O)N2C(C(=O)[O-])=C(C[N+]3(C)CCCC3)CS[C@H]12)c1csc(N)n1 | 2 µg/mL (≈ 4.16 µM) | 4 µg/mL (≈ 8.32 µM) | 1 µg/mL (≈ 2.08 µM) | 2 µg/mL (≈ 4.16 µM) | 2 µg/mL (≈ 4.16 µM) | 2 µg/mL (≈ 4.16 µM) | 64.9% | 2 µg/mL (≈ 4.16 µM) | 4 µg/mL (≈ 8.32 µM) | 2 µg/mL (≈ 4.16 µM) | 8 µg/mL (≈ 16.6 µM) | 0.25 µg/mL (≈ 0.52 µM) | 2 µg/mL (≈ 4.16 µM) | 29.9% | 2 µg/mL (≈ 4.16 µM) | 2 µg/mL (≈ 4.16 µM) | 1 µg/mL (≈ 2.08 µM) | 2 µg/mL (≈ 4.16 µM) | 82.9% | 8.3% | Activity [2]: 12.5%; Activity [13]: 66.4%; Activity [14]: 40%; Activity [15]: 16.4% |
| CO/N=C(\C(=O)N[C@@H]1C(=O)N2C(C(=O)O)=C(COC(N)=O)CS[C@H]12)c1ccco1 [CEFUROXIME] | 8 µg/mL (≈ 18.9 µM) | 16 µg/mL (≈ 37.7 µM) | 4 µg/mL (≈ 9.43 µM) | 8 µg/mL (≈ 18.9 µM) | 8 µg/mL (≈ 18.9 µM) | 16 µg/mL (≈ 37.7 µM) | 26.8% | 16 µg/mL (≈ 37.7 µM) | ≥ 32 µg/mL | 8 µg/mL (≈ 18.9 µM) | 16 µg/mL (≈ 37.7 µM) | 0.25 µg/mL (≈ 0.589 µM) | 8 µg/mL (≈ 18.9 µM) | 0% | 4 µg/mL (≈ 9.43 µM) | 16 µg/mL (≈ 37.7 µM) | 4 µg/mL (≈ 9.43 µM) | 8 µg/mL (≈ 18.9 µM) | 55.3% | 0% | Activity [13]: 31.6%; Activity [14]: 0% |
| C[C@H]1COc2c(N3CCN(C)CC3)c(F)cc3c(=O)c(C(=O)O)cn1c23.C[C@H]1COc2c(N3CCN(C)CC3)c(F)cc3c(=O)c(C(=O)O)cn1c23.O [LEVOFLOXACIN] | ≤ 1 µg/mL | ≤ 1 µg/mL | – | – | ≤ 1 µg/mL | 1 µg/mL | 72% | – | 1 µg/mL | < 1 µg/mL | 16 µg/mL | 16 µg/mL | ≥ 32 µg/mL | 97.2% | ≤ 1 µg/mL | 16 µg/mL | – | 16 µg/mL | 0% | 95% | Activity [2]: 93.8%; Activity [15]: 86.7% |
| CO/N=C(\C(=O)N[C@@H]1C(=O)N2C(C(=O)O)=C(COC(C)=O)CS[C@H]12)c1csc(N)n1 [CEFOTAXIME] | 2 µg/mL (≈ 4.39 µM) | 4 µg/mL (≈ 8.78 µM) | 1 µg/mL (≈ 2.2 µM) | 2 µg/mL (≈ 4.39 µM) | 2 µg/mL (≈ 4.39 µM) | 2 µg/mL (≈ 4.39 µM) | 77% | 4 µg/mL (≈ 8.78 µM) | 8 µg/mL (≈ 17.6 µM) | 2 µg/mL (≈ 4.39 µM) | 2 µg/mL (≈ 4.39 µM) | 0.06 µg/mL (≈ 0.132 µM) | 1 µg/mL (≈ 2.2 µM) | 0% | 1 µg/mL (≈ 2.2 µM) | 2 µg/mL (≈ 4.39 µM) | 1 µg/mL (≈ 2.2 µM) | 2 µg/mL (≈ 4.39 µM) | – | 25% | Activity [13]: 80.7%; Activity [14]: 62.4%; Activity [15]: 49.7% |
| CC1(C)S[C@@H]2[C@H](NC(=O)Cc3ccccc3)C(=O)N2[C@H]1C(=O)O [PENICILLIN G] | 4 µg/mL (≈ 12 µM) | 4 µg/mL (≈ 12 µM) | 1 µg/mL (≈ 2.99 µM) | 2 µg/mL (≈ 5.98 µM) | 2 µg/mL (≈ 5.98 µM) | 4 µg/mL (≈ 12 µM) | 93.5% | 4 µg/mL (≈ 12 µM) | 8 µg/mL (≈ 23.9 µM) | 2 µg/mL (≈ 5.98 µM) | 4 µg/mL (≈ 12 µM) | 0.06 µg/mL (≈ 0.179 µM) | 2 µg/mL (≈ 5.98 µM) | 76.4% | 2 µg/mL (≈ 5.98 µM) | 2 µg/mL (≈ 5.98 µM) | 1 µg/mL (≈ 2.99 µM) | 2 µg/mL (≈ 5.98 µM) | 98% | 0% | Activity [2]: 31.3%; Activity [13]: 100%; Activity [14]: 94.1%; Activity [15]: 71.5% |
| CC1(C)S[C@@H]2[C@H](NC(=O)[C@H](N)c3ccc(O)cc3)C(=O)N2[C@H]1C(=O)O [AMOXICILLIN] | 8 µg/mL (≈ 21.9 µM) | ≥ 16 µg/mL | 2 µg/mL (≈ 5.47 µM) | 8 µg/mL (≈ 21.9 µM) | 4 µg/mL (≈ 10.9 µM) | 16 µg/mL (≈ 43.8 µM) | 62.2% | 8 µg/mL (≈ 21.9 µM) | 16 µg/mL (≈ 43.8 µM) | 8 µg/mL (≈ 21.9 µM) | 16 µg/mL (≈ 43.8 µM) | ≤ 0.06 µg/mL | 8 µg/mL (≈ 21.9 µM) | 30.6% | 4 µg/mL (≈ 10.9 µM) | 4 µg/mL (≈ 10.9 µM) | 2 µg/mL (≈ 5.47 µM) | 8 µg/mL (≈ 21.9 µM) | 73.7% | 13.3% | Activity [2]: 6.3%; Activity [13]: 66.7%; Activity [14]: 0% |
| CC1(C)S[C@@H]2[C@H](NC(=O)[C@H](N)c3ccccc3)C(=O)N2[C@H]1C(=O)O [AMPICILLIN] | 8 µg/mL (≈ 22.9 µM) | ≥ 16 µg/mL | 2 µg/mL (≈ 5.72 µM) | 8 µg/mL (≈ 22.9 µM) | 8 µg/mL (≈ 22.9 µM) | ≥ 16 µg/mL | – | 8 µg/mL (≈ 22.9 µM) | – | 8 µg/mL (≈ 22.9 µM) | – | 0.12 µg/mL (≈ 0.343 µM) | 8 µg/mL (≈ 22.9 µM) | – | 4 µg/mL (≈ 11.4 µM) | 8 µg/mL (≈ 22.9 µM) | 4 µg/mL (≈ 11.4 µM) | 8 µg/mL (≈ 22.9 µM) | – | – | – |
| CCO/N=C(\C(=O)N[C@@H]1C(=O)N2C(C(=O)[O-])=C(Sc3nc(-c4cc[n+](C)cc4)cs3)CS[C@H]12)c1nsc(NP(=O)(O)O)n1 [CEFTAROLINE FOSAMIL] | 0.12 µg/mL (≈ 0.175 µM) | 0.25 µg/mL (≈ 0.365 µM) | 0.12 µg/mL (≈ 0.175 µM) | 0.12 µg/mL (≈ 0.175 µM) | 0.12 µg/mL (≈ 0.175 µM) | 0.25 µg/mL (≈ 0.365 µM) | – | 0.25 µg/mL (≈ 0.365 µM) | 0.25 µg/mL (≈ 0.365 µM) | 0.12 µg/mL (≈ 0.175 µM) | 0.25 µg/mL (≈ 0.365 µM) | 0.03 µg/mL (≈ 0.0438 µM) | 0.12 µg/mL (≈ 0.175 µM) | – | 0.12 µg/mL (≈ 0.175 µM) | 0.25 µg/mL (≈ 0.365 µM) | 0.12 µg/mL (≈ 0.175 µM) | 0.25 µg/mL (≈ 0.365 µM) | – | – | – |
| CC[C@H]1OC(=O)[C@H](C)[C@@H](O[C@H]2C[C@@](C)(OC)[C@@H](O)[C@H](C)O2)[C@H](C)[C@@H](O[C@@H]2O[C@H](C)C[C@H](N(C)C)[C@H]2O)[C@](C)(O)C[C@@H](C)C(=O)[C@H](C)[C@@H](O)[C@]1(C)O [ERYTHROMYCIN] | ≤ 0.12 µg/mL | ≥ 32 µg/mL | – | – | 0.25 µg/mL (≈ 0.341 µM) | ≥ 32 µg/mL | 0% | – | – | < 0.12 µg/mL | – | – | – | 50% | ≥ 32 µg/mL | ≥ 32 µg/mL | – | – | 40.8% | 63.3% | Activity [2]: 62.5%; Activity [14]: 30.6%; Activity [15]: 58.2% |
